Reference: paper PMC2937036 (PLoS ONE, 2010)
Entries after “also recorded” stand apart in the source; their conditions may differ. Where a SMILES comes first, the peptide text is derived from it. Bridges are numbered along the chain shown (N, C = ends).

What was measured:
[1] = test system: Bacillus subtilis ATCC6633; assay: Bactericidal assay (LD99.9), B. subtilis; assay type: cell-based; conditions: 10 mM phosphate buffer pH 7.0 with 1% TSB, 2 h, 37°C
Protocol: (§1) The peptides were tested for microbicidal activities against Bacillus subtilis ATCC6633, Escherichia coli ML35, and Staphylococcus aureus 42D as previously described. Suspensions of logarithmically growing test bacteria were incubated on a microtiter plate at a concentration of 10^5 colony-forming units/mL with various peptide dilutions. The medium was 100 µL of 10 mM phosphate buffer pH 7.0 supplemented with 1% (v/v) of tryptic soy broth (TSB). For later assays, human male serum was also added to a final concentration of 25%. 10 µL aliquots were collected at time 0 h and after 2 h of incubation on a rotary shaker (300 rpm) at 37°C. These were plated on blood agar plates and incubated overnight at 37°C. The Lethal Dose concentration (LD99.9) was determined, corresponding to the concentration killing >99.9% of the inoculum at 2 h. These experiments were performed in duplicate.
(§2) For the testing of the peptides' activities in different conditions, e.g. with serum, we use the same cut-off for activity as defined for Minimum Bactericidal Concentration (MBC), i.e. a 1000-fold reduction of the inoculum. However, we designate this peptide concentration with the more general term LD99.9 which can be applied to the specified conditions of the experiments performed here.

[2] = test system: Staphylococcus aureus 42D; assay: Bactericidal assay (LD99.9), S. aureus; assay type: cell-based; conditions: 10 mM phosphate buffer pH 7.0 with 1% TSB, 2 h, 37°C
Protocol: as §1, §2

Escherichia coli ML35 = assay: Bactericidal assay (LD99.9), E. coli; assay type: cell-based; conditions: 10 mM phosphate buffer pH 7.0 with 1% TSB, 2 h, 37°C
Protocol: as §1, §2

[3] = target: human serum albumin (HSA) (Homo sapiens, UniProt P02768); assay: biochemical
human serum albumin (HSA), sequence (P02768 25-609): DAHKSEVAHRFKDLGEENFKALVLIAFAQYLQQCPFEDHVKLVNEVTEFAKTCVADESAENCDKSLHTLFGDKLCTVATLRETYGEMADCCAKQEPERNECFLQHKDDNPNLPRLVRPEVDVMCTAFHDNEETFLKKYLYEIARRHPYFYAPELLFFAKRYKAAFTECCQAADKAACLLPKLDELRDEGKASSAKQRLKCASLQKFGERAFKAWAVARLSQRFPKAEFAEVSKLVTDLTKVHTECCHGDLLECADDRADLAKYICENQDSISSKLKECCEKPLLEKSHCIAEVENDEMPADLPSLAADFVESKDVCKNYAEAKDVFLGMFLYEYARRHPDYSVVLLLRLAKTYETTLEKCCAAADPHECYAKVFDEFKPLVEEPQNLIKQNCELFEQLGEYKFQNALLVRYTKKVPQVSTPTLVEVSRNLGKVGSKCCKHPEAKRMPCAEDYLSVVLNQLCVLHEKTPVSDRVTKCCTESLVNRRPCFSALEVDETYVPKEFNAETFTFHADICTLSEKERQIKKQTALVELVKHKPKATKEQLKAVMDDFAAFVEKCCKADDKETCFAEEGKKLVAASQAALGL
Protocol: The potential for interactions between various peptides and bovine and human serum albumin (BSA and HSA) were studied by microcalorimetry.
ITC experiments were performed at 25°C on a Microcal VP-ITC microcalorimeter with data analysis performed with the Microcal Origin software. The sample cell contained 0.1 mM of either BSA or HSA dissolved in 20 mM HEPES, 100 mM NaCl, pH 7.9. The syringe was loaded with 2 mM test peptide in the same buffer, and each titration point resulted from 5 µL injections following an initial 2 µL injection. Separate control experiments were also performed to account for heats of dilution/mixing.

25% human male serum = conditions: 37°C, up to 540 min
in vitro = conditions: 25% human male serum; for half-life at 5 µM / remaining at 6.5 h, 5 µM / remaining at 24 h, 5 µM: male, human; for intact peptide after 2 h: 37°C
Protocol: To investigate the effects of the modifications on proteolytic susceptibility, the disappearance of the intact peptides incubated in diluted human serum at 37°C was followed by RP-HPLC. […] Incubations were normally done for 9 h and, in some cases, longer.
Peptide stabilities were assayed in diluted serum as previously described. 25% human male serum was centrifuged at 13,000 rpm for 10 min to remove lipids and the supernatant was collected and incubated at 37°C for at least 15 min. The assay was initiated upon the addition of the test peptide to the serum for a final peptide concentration of 5 µM. 200 µL aliquots of the incubations were taken for the following time points: 0, 30, 75, 120, 240, 390 and 540 min. The aliquots were mixed with 40 µL of 15% trichloroacetic acid (TCA) and incubated at 4°C for at least 15 min to precipitate serum proteins. In the case of Com5 and Com6, 5 µL of 1 M NaOH was supplemented to the TCA to prevent peptide precipitation. The supernatant was collected for each sample after centrifugation at 13,000 rpm for 10 min and stored at −20°C. These assays were performed in triplicate.
Reverse phase high performance liquid chromatography (RP-HPLC) analysis was performed with an AKTA Purifier from Amersham Biosciences (Westborough, MA) using an uRPC C2/C18 ST 4.6/100 column from Pharmacia Biotech (SanJose, CA) of the following dimensions: bed length 100 mm, i.d. 4.6 mm, 120Å. Individually thawed samples were injected through a 100 µL loop, after which a linear gradient was run from 100% solution A (0.05% trifluoroacetic acid (TFA) in filtered water) to 100% solution B (0.045% TFA in 90% acetonitrile) with a flow rate at 0.5 mL/min. The relative concentrations of the remaining soluble peptides were analyzed by the integration of the absorbance at 215 nm as a function of retention time using the Analysis module of the Unicorn software package.

[4] = test system: Staphylococcus aureus 42D; assay: Bactericidal assay (LD99.9), S. aureus in 25% human serum; assay type: cell-based; conditions: unit not given (Table 3 uses µM)
Protocol: In order to be able to make a direct comparison with our serum stability measurements, a few peptides were selected to be tested for antimicrobial activity in 25% human serum (Table 4). […] All LD99.9 values are higher compared to the initial assays in 10 mM sodium phosphate buffer. Contributing factors to this general loss in activity could be the increased ionic concentration, interactions with serum components such as albumin or other proteins, and peptide degradation. Both hexamers with unprotected termini, Lfc1 and Com1, are no longer active while the cyclized short peptides remained fairly antimicrobial. In human serum, Lfc5 and Lfc6 are equally anti-staphylococcal. This reflects a greater loss of activity for Lfc6, but also coincides with the lower serum stability that this peptide has compared to Lfc5 (Fig. 2C). The activities of the cyclized Com peptides were all lowered equally with a 16-fold increase in LD99.9 values compared to activities in serum-excluded media and this agrees with their similar stability profiles (Fig. 2D).
as §1, §2

[5] = parameters: method as in PMID 15853943; conditions: ITC; cited from earlier work

Row | Compound | 99.9% Lethal Dose Concentration (LD99.9) B. subtilis [1] | 99.9% Lethal Dose Concentration (LD99.9) S. aureus [2] | 99.9% Lethal Dose Concentration (LD99.9) E. coli (Escherichia coli ML35) | fragment found (25% human male serum) | half-life at 5 µM (in vitro) | LD99.9 anti-S. aureus in 25% human serum [4] | other results
1 | CSCC[C@@H]1NC(=O)[C@H](CCCNC(=N)N)NC(=O)[C@H](Cc2c[nH]c3ccccc23)NC(=O)[C@H](CCC(N)=O)NC(=O)[C@H](Cc2c[nH]c3ccccc23)NC(=O)[C@H](CCCNC(=N)N)NC(=O)[C@H](CCCNC(=N)N)NC(=O)CNC(=O)[C@H](CC(C)C)NC(=O)[C@H](CCCCN)NC(=O)[C@H](CCCCN)NC1=O [Lfc8, -RRWQWRMKKLG-] (cyclo(RRWQWRMKKLG)) | ≤0.45 µM | 15 µM | 3.8 µM |  |  |  | Kd [3]: 150 µM
2 | -RRWQWRMKKLG- (cyclo(RRWQWRMKKLG); SMILES CSCC[C@@H]1NC(=O)[C@H](CCCNC(=N)N)NC(=O)[C@H](Cc2c[nH]c3ccccc23)NC(=O)[C@H](CCC(N)=O)NC(=O)[C@H](Cc2c[nH]c3ccccc23)NC(=O)[C@H](CCCNC(=N)N)NC(=O)[C@H](CCCNC(=N)N)NC(=O)CNC(=O)[C@H](CC(C)C)NC(=O)[C@H](CCCCN)NC(=O)[C@H](CCCCN)NC1=O) |  |  |  | Single Cut, 75 min |  |  | 
3 | -RRWQWR- (cyclo(RRWQWR); SMILES N=C(N)NCCC[C@@H]1NC(=O)[C@H](CCCNC(=N)N)NC(=O)[C@H](Cc2c[nH]c3ccccc23)NC(=O)[C@H](CCC(N)=O)NC(=O)[C@H](Cc2c[nH]c3ccccc23)NC(=O)[C@H](CCCNC(=N)N)NC1=O) |  |  |  | Single Cut, 75 min |  |  | 
4 | CC(=O)N[C@@H](CCCNC(=N)N)C(=O)N[C@@H](CCCNC(=N)N)C(=O)N[C@@H](Cc1c[nH]c2ccccc12)C(=O)N[C@@H](CCC(N)=O)C(=O)N[C@@H](Cc1c[nH]c2ccccc12)C(=O)N[C@@H](CCCNC(=N)N)C(N)=O [Lfc4, CH3CO-RRWQWR-NH2] (Ac-RRWQWR-NH2) | 3.8 µM | 60 µM | 15 µM |  | ~1.5 h |  | 
5 | RRWQWRMKKLG |  |  |  | RWQWRM, 75 min; also recorded: WQWRM, 75 min |  |  | 
6 | CC(=O)N[C@@H](CCCNC(=N)N)C(=O)N[C@@H](CCCNC(=N)N)C(=O)N[C@@H](Cc1c[nH]c2ccccc12)C(=O)N[C@@H](Cc1c[nH]c2ccccc12)C(=O)N[C@@H](CCCNC(=N)N)C(=O)N[C@@H](Cc1ccccc1)C(=O)O [Com3, CH3CO-RRWWRF] (Ac-RRWWRF-OH) | 7.5 µM | 30 µM | 120 µM |  | ~1 h |  | intact peptide after 2 h (in vitro): almost fully degraded
7 | N=C(N)NCCC[C@H](NC(=O)[C@H](Cc1c[nH]c2ccccc12)NC(=O)[C@H](Cc1c[nH]c2ccccc12)NC(=O)[C@H](CCCNC(=N)N)NC(=O)[C@@H](N)CCCNC(=N)N)C(=O)N[C@@H](Cc1ccccc1)C(=O)O [Com1, RRWWRF] (H-RRWWRF-OH) | 1.9 µM | 7.5 µM | 60 µM |  | < 0.5 h | >120 | intact peptide after 2 h (in vitro): completely gone
8 | CC(=O)N[C@@H](CCCNC(=N)N)C(=O)N[C@@H](CCCNC(=N)N)C(=O)N[C@@H](Cc1c[nH]c2ccccc12)C(=O)N[C@@H](CCC(N)=O)C(=O)N[C@@H](Cc1c[nH]c2ccccc12)C(=O)N[C@@H](CCCNC(=N)N)C(=O)O [Lfc3, CH3CO-RRWQWR] (Ac-RRWQWR-OH) | 60 µM | >120 µM | 120 µM |  | ~1 h |  | intact peptide after 2 h (in vitro): almost fully degraded
9 | N=C(N)NCCC[C@H](NC(=O)[C@H](Cc1c[nH]c2ccccc12)NC(=O)[C@H](CCC(N)=O)NC(=O)[C@H](Cc1c[nH]c2ccccc12)NC(=O)[C@H](CCCNC(=N)N)NC(=O)[C@@H](N)CCCNC(=N)N)C(=O)O [Lfc1, RRWQWR] (H-RRWQWR-OH) | 7.5 µM | 30 µM | 60 µM |  | < 0.5 h | >120 | intact peptide after 2 h (in vitro): completely gone
10 | N=C(N)NCCC[C@@H]1NC(=O)[C@H](Cc2c[nH]c3ccccc23)NC(=O)[C@H](Cc2c[nH]c3ccccc23)NC(=O)[C@H](CCCNC(=N)N)NC(=O)[C@H](CCCNC(=N)N)NC(=O)[C@@H](N)CSSC[C@@H](C(N)=O)NC(=O)[C@H](Cc2ccccc2)NC1=O [Com6, CRRWWRFC-NH2] (H-CRRWWRFC-NH2; disulfide 1-8) | 0.9 µM | 0.9 µM | 3.8 µM |  |  | 15 | remaining at 6.5 h, 5 µM (in vitro): ~50%
11 | Ac-RRWQWR-NH2 |  |  |  | CH3CO-RRWQ, 75 min; also recorded: CH3CO-RRW, 75 min |  |  | 
12 | Ac-RRWQWR-OH |  |  |  | CH3CO-RRWQ, 75 min; also recorded: CH3CO-RRW, 75 min |  |  | 
13 | N=C(N)NCCC[C@@H]1NC(=O)[C@H](CCCNC(=N)N)NC(=O)[C@H](Cc2c[nH]c3ccccc23)NC(=O)[C@H](CCC(N)=O)NC(=O)[C@H](Cc2c[nH]c3ccccc23)NC(=O)[C@H](CCCNC(=N)N)NC1=O [Lfc5, -RRWQWR-] (cyclo(RRWQWR)) | 1.9 µM | 7.5 µM | 7.5 µM |  |  | 60 | remaining at 6.5 h, 5 µM (in vitro): > 70%; remaining at 24 h, 5 µM (in vitro): ~50%
14 | N=C(N)NCCC[C@@H]1NC(=O)[C@H](CCCNC(=N)N)NC(=O)[C@H](Cc2ccccc2)NC(=O)[C@H](CCCNC(=N)N)NC(=O)[C@H](Cc2c[nH]c3ccccc23)NC(=O)[C@H](Cc2c[nH]c3ccccc23)NC1=O [Com5, -RRWWRF-] (cyclo(RRWWRF)) | ≤0.45 µM | 7.5 µM | 30 µM |  |  | 30 | remaining at 6.5 h, 5 µM (in vitro): > 70%; remaining at 24 h, 5 µM (in vitro): ~50%
15 | N=C(N)NCCC[C@@H]1NC(=O)[C@H](Cc2c[nH]c3ccccc23)NC(=O)[C@H](CCC(N)=O)NC(=O)[C@H](Cc2c[nH]c3ccccc23)NC(=O)[C@H](CCCNC(=N)N)NC(=O)[C@H](CCCNC(=N)N)NC(=O)[C@@H](N)CSSC[C@@H](C(N)=O)NC1=O [Lfc6, CRRWQWRC-NH2] (H-CRRWQWRC-NH2; disulfide 1-8) |  |  |  |  |  | 60 | 
16 | Ac-RRWWRF-NH2 |  |  |  | CH3CO-RRWW, 75 min; also recorded: CH3CO-RRW, 75 min |  |  | 
17 | CC(=O)N[C@@H](CCCNC(=N)N)C(=O)N[C@@H](CCCNC(=N)N)C(=O)N[C@@H](Cc1c[nH]c2ccccc12)C(=O)N[C@@H](Cc1c[nH]c2ccccc12)C(=O)N[C@@H](CCCNC(=N)N)C(=O)N[C@@H](Cc1ccccc1)C(N)=O [Com4, CH3CO-RRWWRF-NH2] (Ac-RRWWRF-NH2) | 0.9 µM | 7.5 µM | 7.5 µM |  | ~1.5 h |  | affinity for negatively charged membranes [5]: micromolar affinity
